Results from publication PMC4111244 (Bioorganic & medicinal chemistry letters, 2013).
Like-named read-outs stand apart in the source and are kept apart here.

How the values were obtained:
[1] = molecular target: T. cruzi sterol 14α-demethylase (CYP51) (Trypanosoma cruzi, UniProt Q7Z1V1); test: Spectral response; conditions: P450 2.2 μM; titration range 0.4-7.6 μM
T. cruzi amastigotes [2] = conditions: read-out: EC50 against T.cruzi in culture; cited from earlier work
T. cruzi amastigotes [3] = test: Activity against T. cruzi amastigotes in culture; assay type: cell-based, Trypanosoma cruzi; conditions: for EC50: Trypanosoma cruzi, read-out: T. cruzi EC50(nM), T. cruzi amastigotes in culture; for fold increase in potency compared with compound 12: T. cruzi cultures; for fold drop in potency on replacement of the aniline moiety: versus amino compound (compound 2)
T. cruzi = conditions: ref previous studies; cited from earlier work

Chain of T. cruzi sterol 14α-demethylase (CYP51) (Q7Z1V1 whole entry): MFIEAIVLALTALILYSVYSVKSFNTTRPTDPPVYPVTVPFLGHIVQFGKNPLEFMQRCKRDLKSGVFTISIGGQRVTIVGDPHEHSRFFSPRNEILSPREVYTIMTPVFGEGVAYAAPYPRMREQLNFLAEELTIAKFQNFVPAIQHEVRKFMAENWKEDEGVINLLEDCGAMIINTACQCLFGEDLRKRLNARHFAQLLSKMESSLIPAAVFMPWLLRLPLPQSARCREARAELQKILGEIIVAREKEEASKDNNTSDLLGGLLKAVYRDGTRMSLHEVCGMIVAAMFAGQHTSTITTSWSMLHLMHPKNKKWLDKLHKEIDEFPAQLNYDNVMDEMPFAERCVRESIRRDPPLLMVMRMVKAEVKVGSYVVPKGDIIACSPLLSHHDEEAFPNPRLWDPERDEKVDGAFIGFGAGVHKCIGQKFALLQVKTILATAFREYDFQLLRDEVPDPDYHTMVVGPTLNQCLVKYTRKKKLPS

COc1ccc(NCc2cncn2Cc2ccc(-c3ccccc3)cc2N)nc1-c1ccccc1 [Compound 26c]
binding to the haem moiety in the CYP51 active site (spectral type) [1]: Soret Type II binding spectra

CC[C@@H]([C@H](C)O)n1ncn(-c2ccc(N3CCN(c4ccc(OC[C@@H]5CO[C@@](Cn6cncn6)(c6ccc(F)cc6F)C5)cc4)CC3)cc2)c1=O [posaconazole]
EC50 (T. cruzi amastigotes [2]): < 1 nM

Nc1cc(-c2ccccc2)ccc1Cn1cncc1CNc1ccc(Cl)c(-n2ccnc2)c1 [Compound 36h]
EC50 (T. cruzi amastigotes [3]): < 10 nM

Nc1cc(-c2ccccc2)ccc1Cn1cncc1CNc1ccc(F)cc1 [Compound 36p]
activity against T.cruzi amastigotes (in words) (T. cruzi amastigotes [3]): excellent activity

Nc1ccc(-c2cc(NCc3cncn3Cc3ccc(-c4ccccc4)cc3)ccc2-c2nc3ccccc3s2)cc1 [Compound 12k]
fold increase in potency compared with compound 12 (T. cruzi amastigotes [3]; versus compound 12): > 10 fold

Nc1cc(-c2ccccc2)ccc1Cn1cncc1CNc1ccc(-c2nc3ccccc3s2)c(-c2ccccc2)c1 [Compound 2]
fold increase in potency compared with compound 12 (T. cruzi amastigotes [3]; versus compound 12): 20 fold
efficacy in the acute model of the disease (T. cruzi): highly efficacious

O=C(O)c1cc(-c2ccccc2)ccc1Cn1cncc1CNc1ccc(-c2nc3ccccc3s2)c(-c2ccccc2)c1 [Compound 24q]
fold drop in potency on replacement of the aniline moiety (T. cruzi amastigotes [3]): > 27 fold

Fc1ccc(NCc2cncn2Cc2ccc(-c3ccccc3)cc2F)cc1 [Compound 24b]
fold drop in potency compared with compound 12 (T. cruzi amastigotes [3]; against T. cruzi, versus compound 12): less than 4 fold

COc1cc(-c2ccccc2)ccc1Cn1cncc1CNc1ccc(Cl)c(-c2ccccc2)c1 [Compound 24n]
fold drop in potency on replacement of the aniline moiety (T. cruzi amastigotes [3]): > 27 fold

Fc1cc(-c2ccccc2)ccc1Cn1cncc1CNc1ccc(F)c(-c2ccccc2)c1 [Compound 24a]
EC50 (T. cruzi amastigotes [3]): < 20 nM

Nc1cc(-c2ccccc2)ccc1Cn1cncc1CNc1ccc(Cl)cc1 [Compound 36k]
activity against T.cruzi amastigotes (in words) (T. cruzi amastigotes [3]): excellent activity

Cc1cc(NCc2cncn2Cc2ccc(-c3ccccc3)cc2N)ccc1Cl [Compound 36j]
activity against T.cruzi amastigotes (in words) (T. cruzi amastigotes [3]): excellent activity

Nc1cc(-c2ccccc2)ccc1Cn1cncc1CNc1ccc(Cl)c(Cl)c1 [Compound 36f]
EC50 (T. cruzi amastigotes [3]): < 10 nM

Oc1cc(-c2ccccc2)ccc1Cn1cncc1CNc1ccc(Cl)c(-c2ccccc2)c1 [Compound 24o]
fold drop in potency on replacement of the aniline moiety (T. cruzi amastigotes [3]): > 27 fold
